Tests used:
[1] = test system: Saos-2; assay: cells; format: cell-based, human; conditions: for IC50: Homo sapiens, SAOS-2, 120 h, read-out: IC50 growth inhibition
[2] = test system: MG-63; assay: cells; format: cell-based; conditions: Homo sapiens, MG-63, 120 h, read-out: IC50 growth inhibition
[3] = Body weight / tolerance in xenografted mice; format: in vivo, NSG male mice; conditions: 80 mg/kg oral gavage every other day, 10 doses
Method: Animal experiments were executed in accordance with a protocol approved by the McGill Institutional Animal Care Committee (McGill University Health Centre Research Institute and McGill University, Montreal, Canada). Xenografts of the tumors were obtained via unilateral and subcutaneous injection (5 × 10^6 cells in 100 µL of a PBS1x solution) into immunodeficient NSG male mice (N = 28; 8 weeks old; weight = 30 g; Charles River, Canada). The mice were maintained at optimal temperature (24 °C) and relative humidity (50%) on a 12/12-light/dark cycle with free access to water and food. The mice were monitored clinically every day; body weights were recorded and tumor volumes were measured with a caliper using the formula 4/3 π (length/2) (width/2)^2 every other day. Once tumors reached 68 mm^3, the mice were randomly divided into 4 groups: 1 was treated with ZR2002 (N = 7), another was treated with JS84 (N = 7), another was treated with JS61 (N = 7) and the last was treated with a vehicle (N = 7). The mice were treated every other day for 20 days, receiving a total of 10 doses via oral gavage of 200 µL of a ZR2002, JS61 or JS84 solution at a dose of 80 mg/kg body weight or the vehicle (control group). The drugs were dissolved in a solution of 25% of alcohol (Greenfield, Toronto, ON, Canada), 25% of Cremophor (Sigma-Aldrich, St. Louis, MO, USA) and 50% of 0.9% NaCl (Sigma-Aldrich, St. Louis, MO, USA). The vehicle solution used the same mixture without any drug.

[4] = target: T1, EGFR phosphorylation of tyrosine (Tyr) 1068 (Homo sapiens, UniProt P00533); assay: P-EGFR in tumor tissue (immunohistochemistry, Western blot); format: in vivo; conditions: tumors 3 h after last dose, 80 mg/kg, N = 4
T1 construct: Western blotting in tumor samples obtained from animals treated with ZR2002, JS61, JS84 or the vehicle; from tissue; host or cells: Saos-2 xenograft tumours grown subcutaneously in NSG mice
T1 sequence (P00533 25-1210): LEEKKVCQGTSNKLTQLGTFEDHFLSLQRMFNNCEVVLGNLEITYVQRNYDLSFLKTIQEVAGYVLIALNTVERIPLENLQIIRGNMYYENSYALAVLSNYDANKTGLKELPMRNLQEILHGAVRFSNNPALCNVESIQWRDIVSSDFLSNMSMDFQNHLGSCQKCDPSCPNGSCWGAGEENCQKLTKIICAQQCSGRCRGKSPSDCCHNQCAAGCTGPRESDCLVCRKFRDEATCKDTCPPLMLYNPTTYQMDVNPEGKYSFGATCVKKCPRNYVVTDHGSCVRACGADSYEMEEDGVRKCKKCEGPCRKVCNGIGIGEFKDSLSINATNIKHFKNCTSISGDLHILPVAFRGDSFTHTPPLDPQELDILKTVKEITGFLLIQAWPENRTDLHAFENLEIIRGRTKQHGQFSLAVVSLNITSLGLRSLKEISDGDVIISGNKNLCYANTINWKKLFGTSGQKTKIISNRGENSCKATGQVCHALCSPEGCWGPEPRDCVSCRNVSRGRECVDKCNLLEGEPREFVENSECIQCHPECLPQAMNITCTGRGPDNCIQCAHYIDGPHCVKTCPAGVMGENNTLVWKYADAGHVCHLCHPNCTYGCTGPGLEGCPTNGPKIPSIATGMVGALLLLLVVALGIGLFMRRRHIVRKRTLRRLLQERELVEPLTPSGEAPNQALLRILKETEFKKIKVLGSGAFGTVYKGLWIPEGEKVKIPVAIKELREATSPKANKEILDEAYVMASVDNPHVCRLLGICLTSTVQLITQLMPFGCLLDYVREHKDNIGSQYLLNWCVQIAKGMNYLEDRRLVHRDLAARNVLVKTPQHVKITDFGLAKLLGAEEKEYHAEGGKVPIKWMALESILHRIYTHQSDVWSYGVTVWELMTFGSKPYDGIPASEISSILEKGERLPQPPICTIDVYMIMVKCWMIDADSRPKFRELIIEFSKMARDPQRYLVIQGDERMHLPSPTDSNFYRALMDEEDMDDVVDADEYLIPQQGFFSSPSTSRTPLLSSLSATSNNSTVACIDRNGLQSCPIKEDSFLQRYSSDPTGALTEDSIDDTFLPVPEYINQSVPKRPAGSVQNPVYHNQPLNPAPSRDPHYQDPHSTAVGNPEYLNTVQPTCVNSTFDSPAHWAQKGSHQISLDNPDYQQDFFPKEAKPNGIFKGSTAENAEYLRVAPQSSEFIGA
Method: In order to study the drug pharmacokinetics, 1 last dose (the 11th dose) was administered 3 h prior to sacrifice and after a break of 5 days from the previous drug administration.
At the end of the study, the mice were sacrificed, and the plasma and tumors were collected. The plasma was stored at −80 °C, and the tumor tissues were transversely cut into 2 parts: 1 was immediately frozen in liquid nitrogen and stored at −80 °C for Western blots and LC-MS analysis; the other was fixed in 4% paraformaldehyde and used for histology.
The tumors were fixed for 36 h in 4% paraformaldehyde, transferred to 70% EtOH and paraffin-embedded. Sections 4 µm thick were deparaffinized, rehydrated and incubated for 20 min at 37 °C with anti-P-EGFR (1–100, ab40815, Abcam, Cambridge, UK) or anti-P-H2AX (1–100, sc-517348, Santa Cruz Biotechnology, Dallas, TX, USA), followed by secondary Ab incubation with OmniMap anti-Rb HRP (760–4311, Roche, Basel, Switzerland) at room temperature for 16 min, followed by the detection kit ChromoMap Kit (760–4304, Roche, Basel, Switzerland), and the slides were then counterstained with hematoxylin, dehydrated, cleared and cover-slipped. The slides were digitally scanned using an Aperio scanner scope XT.
The tumor tissue samples were smashed with liquid nitrogen into a mortar, and the tumor powders were transferred to cold RIPA 1x buffer with an anti-protease and anti-phosphatase inhibitor cocktail (Roche, Basel, Switzerland) in ice for 1 h and sonicated. After centrifugation, the proteins were quantified and mixed in Laemmli buffer (Sigma-Aldrich, St. Louis, MO, USA), maintaining the same concentration.
Cell lysates or tissue lysates were loaded onto 4–20% SDS-PAGE gels (mini-protean TGx stain-free, Bio-Rad, Hercules, CA, USA) and transferred to PVDF membranes that were pre-wetted with methanol. […] The quantification of the immunoblots was performed on digitalized images using ImageLab Software 6.1 (Bio-Rad, Hercules, CA, USA). […]

Compound | fold more potent than JS84 [1] [fold] | IC50 [1] [µM] | IC50 [2] [µM] | tolerance / body weight throughout treatment [3] | EGFR phosphorylation of Tyr 1068 in tumors vs vehicle [4]
ClCCNc1ccc2ncnc(Nc3cccc(Br)c3)c2c1 [ZR2002] | 7 | 0.08 ± 0.01 | 0.45 ± 0.08 | no significant weight loss | reduced
CN(CCCl)c1ccc2ncnc(Nc3cccc(Br)c3)c2c1 [JS84] | – | 0.25 ± 0.04 | 5.04 ± 0.98 | no significant weight loss | detectable EGFR phosphorylation
ClCCN(CCCl)c1ccc2ncnc(Nc3cccc(Br)c3)c2c1 [JS61] | – | 1.59 ± 0.1 | 12.5 ± 0.61 | no significant weight loss | detectable EGFR phosphorylation
